Measured values reported in patent US20250340591A1, “COMPOSITION FOR PREVENTING OR TREATING INFLAMMATORY BOWEL DISEASE CONTAINING NOVEL COMPOUND” (ANYGEN CO., LTD., priority 2021, published 2025).

Columns and labels:
[1] = target: T1, neuromedin U receptor (NMU1) (Homo sapiens, UniProt Q9HB89); assay: luciferase assay system, ghrelin receptor family selectivity; format: cell-based; conditions: compared with intrinsic ligand, FIG. 74
T1 construct: expressed in transfected cells
T1 sequence (Q9HB89 1-426): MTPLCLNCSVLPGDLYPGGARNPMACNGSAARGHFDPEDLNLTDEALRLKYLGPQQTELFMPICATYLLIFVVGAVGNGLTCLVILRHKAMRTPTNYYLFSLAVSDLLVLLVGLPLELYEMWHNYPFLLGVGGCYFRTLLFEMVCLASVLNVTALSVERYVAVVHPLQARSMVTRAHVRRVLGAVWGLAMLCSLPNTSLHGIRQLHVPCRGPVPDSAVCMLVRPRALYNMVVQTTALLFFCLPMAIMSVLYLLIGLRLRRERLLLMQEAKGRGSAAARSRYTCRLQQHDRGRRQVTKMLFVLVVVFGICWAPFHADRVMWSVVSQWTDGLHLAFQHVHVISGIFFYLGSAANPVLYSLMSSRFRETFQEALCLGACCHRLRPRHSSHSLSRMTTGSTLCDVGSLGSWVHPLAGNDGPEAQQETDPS
Description: In addition, through the activity test of the HKFY derivatives for similar receptors to GPR39, ghrelin receptor family (ghrelin receptor (GHSR), motilin receptor (MTLR), neurotensin receptor (NTSR1 & NTSR2), neuromedin U receptor (NMU1 & NMU2), TRH (thyrotropin releasing hormone) receptor (TRHR)), the selectivity and specificity for the GPR39 receptor were confirmed.
Specifically, the degree of activity between the intrinsic ligand and HKFY-34 for each receptor was analyzed using a luciferase assay system (FIG. 74).

HT-29 cells = assay: LPS-induced inflammation cell model of inflammatory bowel disease (HT-29), qPCR and ELISA; format: cell-based; conditions: HT-29, 1 μg/mL LPS, vs LPS alone
Description: In order to confirm the effect of HKFY-34 on anti-inflammatory action, which is one of the gastrointestinal tract protective function (barrier function) by GPR39, the anti-inflammatory activity of HKFY-34 was evaluated in a cell model of inflammatory bowel disease (IBD).
Specifically, the HT-29 cells were treated with 1 μg/mL LPS to induce inflammation and prepare an inflammatory bowel disease model, and were treated with HKFY-34 at different concentrations. Thereafter, the expression levels of mRNA (FIG. 81) and protein (FIG. 82) of inflammation factors for ulcerative colitis were measured through qPCR and ELISA.

[2] = system: ulcerative colitis-induced GPR39 deficient mice (Gpr39−/−); assay: DSS-induced ulcerative colitis in GPR39 deficient mice; format: in vivo
Description: In order to confirm the effect of HKFY-34 in an inflammatory bowel disease model using GPR39 as a target substance, a disease model of ulcerative colitis was prepared using GPR39 deficient mice (GPR39 knock out (KO), Gpr39^−/−). At this time, wild type mice born from a litter were set as a control group for each treated group of GPR39 deficient mice.
Specifically, an animal model of ulcerative colitis was prepared by feeding GPR39 deficient mice (Lexicon pharmaceuticals) and wild type mice with water containing 3% DSS in the same manner as in Experimental Example 7. GPR39 KO mice fed with only DSS (vehicle+3% DSS) were set as a negative control group, and GPR39 KO mice administered with HKFY-34 (10 mg/kg) (HKFY-34 10 mg/kg+3% DSS) were set as a test group. Intraperitoneal administration was performed once a day for 5 days.

GPR39 = target: T2, GPR39 (Homo sapiens, UniProt O43194); assay: luciferase assay system (SRE luciferase reporter gene, CV-1 cells expressing GPR39); format: cell-based; parameters: expressed in transfected cells; host or cells: CV-1 fibroblast cell line (Korea Cell Line Bank), adenoviral transduction at 50 MOI
T2 sequence (O43194 1-453): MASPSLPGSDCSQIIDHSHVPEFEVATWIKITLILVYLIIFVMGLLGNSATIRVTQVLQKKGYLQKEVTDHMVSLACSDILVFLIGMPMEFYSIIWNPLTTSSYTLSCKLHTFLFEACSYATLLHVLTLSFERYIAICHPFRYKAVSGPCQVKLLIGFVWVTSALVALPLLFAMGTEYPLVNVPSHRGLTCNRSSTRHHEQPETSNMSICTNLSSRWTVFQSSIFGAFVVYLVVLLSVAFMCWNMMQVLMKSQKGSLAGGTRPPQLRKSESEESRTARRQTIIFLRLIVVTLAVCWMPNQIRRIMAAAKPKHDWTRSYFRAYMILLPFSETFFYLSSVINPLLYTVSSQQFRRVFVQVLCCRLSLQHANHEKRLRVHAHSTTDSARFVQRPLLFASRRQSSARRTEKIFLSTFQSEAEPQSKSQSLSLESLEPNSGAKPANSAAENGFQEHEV

[3] = system: C57BL6/J mice with ulcerative colitis induced by DSS; assay: DSS-induced ulcerative colitis animal model; format: in vivo
Description: Specifically, an animal model of ulcerative colitis among inflammatory bowel diseases was prepared by feeding C57BL6/J mice (Central Lab. Animal Inc.) with water containing 3% DSS (dextran sodium sulfate).
The untreated (vehicle) mice were set as a control group, the mice fed with only DSS (vehicle+3% DSS) were set as a negative control group, and the mice administered intraperitoneally with SASP (sulfasalazine) at 50 mg/kg after treatment with DSS (SASP 50 mg/kg+3% DSS) were set as a positive control group. As a test group, the mice were intraperitoneally administered with HKFY-34 at 0.1, 1, and 10 mg/kg, respectively. HKFY-34 was administered once a day for 5 days, and during the administration period, the stool condition and body weight loss were measured in the subjects. […]

[4] = 0.1, 1 and 10 mg/kg intraperitoneal for 5 days, ELISA, vs negative control, FIG. 88
[5] = 0.1, 1 and 10 mg/kg intraperitoneal for 5 days, qPCR, FIG. 90
[6] = 0.1, 1 and 10 mg/kg intraperitoneal for 5 days, qPCR, vs negative control, FIG. 87

CCCCCCCC(=O)NCCCC[C@H](NC(=O)[C@@H](N)Cc1cn(C(c2ccccc2)c2ccccc2)cn1)C(=O)N[C@H](Cc1ccc(C)cc1)C(=O)N[C@@H](Cc1ccc(O)cc1)C(=O)O [HKFY-34, ((R)-2-((S)-2-((S)-2-amino-3-(1-benzhydryl-1H-imidazol-4-yl)propanamido)-6-octanamidohexanamido)-3-(p-tolyl)propanoyl)-L-tyrosine]
activity for NMU1 [1]: very low | secretion level of IL-1β (HT-29 cells; ELISA, FIG. 82): significantly decreased by HKFY-34 treatment in a dose-dependent manner | secretion level of IL-6 (HT-29 cells; ELISA, FIG. 82): significantly decreased by HKFY-34 treatment in a dose-dependent manner | secretion level of IL-8 (HT-29 cells; ELISA, FIG. 82): significantly decreased by HKFY-34 treatment in a dose-dependent manner | secretion level of TNF-α (HT-29 cells; ELISA, FIG. 82): significantly decreased by HKFY-34 treatment in a dose-dependent manner | mRNA expression level of IL-1β (HT-29 cells; qPCR, FIG. 81): significantly decreased by HKFY-34 treatment in a dose-dependent manner | mRNA expression level of IL-6 (HT-29 cells; qPCR, FIG. 81): significantly decreased by HKFY-34 treatment in a dose-dependent manner | mRNA expression level of IL-8 (HT-29 cells; qPCR, FIG. 81): significantly decreased by HKFY-34 treatment in a dose-dependent manner | mRNA expression level of TNF-α (HT-29 cells; qPCR, FIG. 81): significantly decreased by HKFY-34 treatment in a dose-dependent manner | inhibitory effect on the reduction of colon length ([2]; 10 mg/kg intraperitoneal for 5 days, FIG. 92): not observed | effect of reducing inflammatory damage of colon tissue (H&E staining) ([2]; 10 mg/kg intraperitoneal for 5 days, FIG. 95): not observed | inhibitory effect on body weight loss ([2]; 10 mg/kg intraperitoneal once a day for 5 days, 3% DSS, FIG. 91): no inhibitory effect | effect of alleviating stool consistency ([2]; 10 mg/kg intraperitoneal, vs negative control, FIG. 93): not observed | effect of alleviating blood in stool ([2]; 10 mg/kg intraperitoneal, vs negative control, FIG. 94): not observed | ECmax (−fold induction over basal) (GPR39): 22.39 ± 4.59 fold induction over basal | Reporter gene assay ECmax (−fold induction over basal) (GPR39): 22.39 ± 4.59 fold induction over basal | activity level for GPR39 (in words) (GPR39; comment on Table 3): higher activity level than other HKFY derivatives | activity and ECmax value for GPR39 (in words) (GPR39; comment on Table 3, derivatives composed of d-Phe(methyl)): most excellent activity and high ECmax value | concentration of IL-1β in the blood [3, 4]: significantly decreased | concentration of TNF-α in the blood [3, 4]: significantly decreased | mRNA expression level of ZO-1 in colon tissue [3, 5]: significantly increased by HKFY-34 in a dose-dependent manner | mRNA expression level of occludin in colon tissue [3, 5]: significantly increased by HKFY-34 in a dose-dependent manner | mRNA expression level of IL-1β in colon tissue [3, 6]: significantly decreased | mRNA expression level of IL-6 in colon tissue [3, 6]: significantly decreased | mRNA expression level of IL-8 in colon tissue [3, 6]: significantly decreased | mRNA expression level of TNF-α in colon tissue [3, 6]: significantly decreased | length contraction of the colon ([3]; 0.1, 1 and 10 mg/kg intraperitoneal for 5 days, vs negative control (DSS alone), FIG. 84): reduced by HKFY-34 in a dose-dependent manner | degree of damage caused by inflammation of the colon tissue (H&E staining) ([3]; 0.1, 1 and 10 mg/kg intraperitoneal for 5 days, vs negative control, FIG. 89): alleviated | body weight loss ([3]; 0.1, 1 and 10 mg/kg intraperitoneal once a day for 5 days, 3% DSS, FIG. 83): significantly inhibited by HKFY-34 in a dose-dependent manner | stool consistency (diarrhea) score ([3]; 0.1, 1 and 10 mg/kg intraperitoneal, score 0 to 3, FIG. 85): alleviated in a dose-dependent manner | blood in stool (fecal bleeding) score ([3]; 0.1, 1 and 10 mg/kg intraperitoneal, score 0 to 3, FIG. 86): alleviated in a dose-dependent manner
